In patent US9029386B2, “Pyridine derivatives useful as kinase inhibitors” (YM Biosciences Australia Pty Ltd, priority 2006, dated 2015):
pIC50: −log10 of the molar value.

Tests used:
EphA8(h) = biological target: T1, EphA8(h) (Homo sapiens, UniProt P29322); test: KinaseProfiler assay (Upstate), EphA8; type: biochemical
T1 construct: purchased Upstate Biotechnology (Dundee, UK), KinaseProfiler service
T1 sequence (P29322 28-1005): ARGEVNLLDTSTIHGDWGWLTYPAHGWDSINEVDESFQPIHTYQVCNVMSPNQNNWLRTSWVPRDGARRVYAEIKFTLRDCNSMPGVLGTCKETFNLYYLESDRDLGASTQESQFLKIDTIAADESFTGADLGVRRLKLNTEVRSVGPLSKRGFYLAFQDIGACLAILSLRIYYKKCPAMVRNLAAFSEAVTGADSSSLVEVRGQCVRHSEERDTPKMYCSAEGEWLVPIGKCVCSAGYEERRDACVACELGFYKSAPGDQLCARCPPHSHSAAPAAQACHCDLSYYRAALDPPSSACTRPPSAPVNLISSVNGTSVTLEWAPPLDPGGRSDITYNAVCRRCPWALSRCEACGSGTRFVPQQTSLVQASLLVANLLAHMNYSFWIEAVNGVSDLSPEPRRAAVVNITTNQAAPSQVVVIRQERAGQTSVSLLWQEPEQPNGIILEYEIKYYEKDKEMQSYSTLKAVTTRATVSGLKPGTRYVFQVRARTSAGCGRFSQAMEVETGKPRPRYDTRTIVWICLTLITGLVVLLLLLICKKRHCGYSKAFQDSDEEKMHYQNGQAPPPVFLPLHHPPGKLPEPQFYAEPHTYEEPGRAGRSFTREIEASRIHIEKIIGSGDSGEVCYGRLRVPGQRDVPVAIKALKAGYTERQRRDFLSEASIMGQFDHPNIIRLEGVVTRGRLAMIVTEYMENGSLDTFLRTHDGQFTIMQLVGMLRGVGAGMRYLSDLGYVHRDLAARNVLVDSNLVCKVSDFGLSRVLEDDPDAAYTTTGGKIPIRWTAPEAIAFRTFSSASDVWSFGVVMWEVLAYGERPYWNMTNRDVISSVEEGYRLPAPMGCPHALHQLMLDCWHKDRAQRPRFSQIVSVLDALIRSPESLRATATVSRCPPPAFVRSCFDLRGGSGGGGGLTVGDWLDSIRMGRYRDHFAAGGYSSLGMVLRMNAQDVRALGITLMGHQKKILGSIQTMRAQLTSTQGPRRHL
Experimental: Further enzyme assays were conducted at Upstate Biotechnology (Dundee, UK) in the KinaseProfiler™ Assay system.
The general protocol is as follows. All kinases are pre-diluted to a 10× working concentration prior to addition into the assay. The composition of the dilution buffer for the kinases is 20 mM MOPS pH 7.0, 1 mM EDTA, 0.1% β-mercaptoethanol, 0.01% Brij-35, 5% glycerol, 1 mg/ml BSA. All substrates are dissolved and diluted to working stocks in de-ionised water.

mNFS-60 = test: Cellular assay (Alamar Blue), mNFS-60 with human M-CSF; type: cell-based; conditions: human M-CSF at 20 ng/ml, 72 hr
Experimental: Cells for the assays were prepared by harvesting cells from culture, and then diluting them in the appropriate growth medium to between 40,000 cell/mL and 600,000 cell/mL, depending on the cell line.
The compounds to be tested were added (104, 10× final concentration) to a flat bottomed 96-well plate. The cellular suspension (80 μL per well) was added, and one hour later the growth factor was added (human M-CSF at 20 ng/ml for mNFS-60, mouse IL-3 at 5 ng/ml for Baf3-WT). The plate was then incubated for 72 hr at 37° C., 5% CO2. Alamar Blue (10^4 per well) was added and the plates returned to the incubator for a further 4-8 hours.
The plates were then read using a fluorescence plate reader at excitation 544 nm and emission 590 nm.

[1] = biological target: T2, kinase domain of human CSF1-R (Homo sapiens, UniProt P07333); test: Alphascreen protein tyrosine kinase assay, CSF-1R; type: biochemical
T2 construct: from codon I553 to Q961; made in house; host or cells: Sf9 insect cells (baculovirus)
T2 sequence (P07333 553-961): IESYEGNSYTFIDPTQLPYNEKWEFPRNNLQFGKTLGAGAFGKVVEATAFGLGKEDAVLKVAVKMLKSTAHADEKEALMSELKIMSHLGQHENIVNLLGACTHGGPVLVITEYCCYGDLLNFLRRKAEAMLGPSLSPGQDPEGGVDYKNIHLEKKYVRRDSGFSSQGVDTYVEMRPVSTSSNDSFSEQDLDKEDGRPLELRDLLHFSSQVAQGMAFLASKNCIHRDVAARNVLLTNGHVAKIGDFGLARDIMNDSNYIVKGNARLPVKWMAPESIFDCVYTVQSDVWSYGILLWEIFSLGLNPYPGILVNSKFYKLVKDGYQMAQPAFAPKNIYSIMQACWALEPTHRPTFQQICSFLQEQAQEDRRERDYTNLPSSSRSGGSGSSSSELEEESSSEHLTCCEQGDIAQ
Experimental: For screening purposes, compounds were diluted in 96 well plates at a concentration of 20 μM. Plates were warmed at 37° C. for 30 minutes before assay.
The kinase domain of human CSF1-R from codon I553 to Q961 was cloned into the pDEST-20 expression vector (Invitrogen). The CSF1-R plasmid was then transformed into competent DH10Bac cells (Gibco), and the recombinant baculovirus produced prepared for transfection into Sf9 insect cells.
Baculovirus preparations from each of construct were infected into five liters of SF9 cells (Invitrogen) grown in SF-900 medium (Invitrogen) to a cell density of approximately 1−2×10^6 cells/ml. […] Cells were harvested and lysed. Tyrosine kinase domains were purified by affinity chromatography on a glutathione-agarose column (Scientifix Pty. Ltd. catalog #: GSH-200).
Kinase assays were performed in 384 well Optiplates (Packard) using an Alphascreen Protein Tyrosine Kinase kit. […] Alphascreen phosphotyrosine acceptor beads followed by streptavidin donor beads were added under subdued light. The Alphascreen plates were read on a Packard Fusion Alpha. Inhibitors were added to the assays thirty minutes prior to the addition of ATP. Inhibitors were added in aqueous DMSO, with DMSO concentrations never exceeding 1%.

Structure (SMILES)	inhibition at 0.1 µM (EphA8(h))	inhibition at 1 µM (EphA8(h))	pIC50 [1]	pIC50 (mNFS-60)
Cc1cccc(C(=O)Nc2cccc([C@H](C)Nc3cncc(-c4ccc(S(N)(=O)=O)cc4)n3)c2)c1 [Compound 77]	66%	99%	> 7.00	> 6.70
Cc1cccc(C(=O)Nc2cccc([C@H](C)Nc3cncc(-c4ccc(N5CCN(C)CC5)cc4)n3)c2)c1 [Compound 129]	42%	90%	> 7.00	> 6.70
Cc1cccc(C(=O)Nc2cccc([C@H](C)Nc3cncc(-c4cccc(N5CCOCC5)c4)n3)c2)c1 [Compound 147]	71%	98%	> 7.00	> 6.70
C[C@H](Nc1cncc(-c2ccc(N3CCN(C)CC3)cc2)n1)c1cccc(NC(=O)c2cccc(C(F)(F)F)c2)c1 [Compound 148]	81%	100%	> 7.00	> 6.70
C[C@H](Nc1cncc(-c2cccc(N3CCOCC3)c2)n1)c1cccc(NC(=O)c2cccc(C(F)(F)F)c2)c1 [Compound 149]	81%	103%	> 7.00	> 6.00

Now from value to compound, other results behind:

inhibition at 0.1 µM (EphA8(h))	inhibition at 1 µM (EphA8(h))	pIC50 [1]	Structure (SMILES)	pIC50 (mNFS-60)
67%	97%	–	C[C@H](Nc1cncc(Cl)n1)c1cccc(NC(=O)c2cccc(C(F)(F)F)c2)c1 [Compound 114, (S)—N-(3-(1-(6-chloropyrazin-2-ylamino)ethyl)phenyl)-3-(trifluoromethyl)benzamide]	> 6.00
7%	64%	> 7.00	Cc1cccc(C(=O)Nc2cccc([C@H](C)Nc3cncc(C(N)=O)n3)c2)c1 [Compound 133, (S)-6-(1-(3-(3-methylbenzamido)phenyl)ethylamino)pyrazine-2-carboxamide]	> 6.70
30%	82%	> 7.00	Cc1cccc(C(=O)Nc2cccc([C@H](C)Nc3cncc(-n4ccnc4)n3)c2)c1 [Compound 143, (S)—N-(3-(1-(6-(1H-imidazol-1-yl)pyrazin-2-ylamino)ethyl)phenyl)-3-methylbenzamide]	> 6.70
91%	102%	–	Cc1cccc(C(=O)Nc2ccc(C)c([C@H](C)Nc3cncc(Cl)n3)c2)c1 [Compound 168]	–
